Values of other authors, collected in patent publication US12616655B2, “Topical antibiotic containing pharmaceutical composition for bacterial infections and wound healing” (Vishagan Vanangamudi Sulur, priority 2019, dated 2026).
≈ marks a conversion by molar mass, not a printed value. Where two headings read alike, the source gives them in different places.

Experiments:
[1] = at 22° C.
[2] = test system: Staphylococcus aureus
[3] = through intact human skin

- pKa [1]: 5
- Systemic absorption [3]: minimal
- solubility (in alcohol at 20° C.): 500 µg/mL (≈ 999 µM)
- solubility (in water at 20° C.): 1000 µg/mL (≈ 2000 µM)
SMILES: C/C(=C\C(=O)OCCCCCCCCC(=O)O)C[C@@H]1OC[C@H](C[C@@H]2O[C@H]2[C@@H](C)[C@H](C)O)[C@@H](O)[C@H]1O [Mupirocin]
- inhibition of protein and RNA synthesis [2]: strongly inhibit
